Patent US20190142835A1, “INHIBITION OF AUTOPHAGY USING PHOSPHOLIPASE A2 INHIBITORS” (OREGON HEALTH & SCIENCE UNIVERSITY, priority 2017, published 2019)

Columns and labels:
ACHN cells [1] = assay: High content imaging screen of 116 small molecule inhibitors for p62 and pS6; assay type: cell-based, human; details: HCI screen, 72 hr; for p62 expression and phosphorylation of S6: 7-point dilution series
Description: We used a metastatic human RCC cell line, ACHN. Small molecule inhibitors have been extensively used in RCC over the last decade. […] Importantly, p62 is an autophagy substrate that is degraded along with its cargo, and so is expected to decrease with induction of autophagy. Therefore, we monitored p62 steady-state levels as an initial screen of autophagy flux. Next, we combined the measurement of the p62 with a measurement of mTORC1 activity an independent readout to evaluate autophagy. mTORC1 plays the central role in the anabolic process by increasing protein content through ribosomal biogenesis and elongation of protein translation. Specifically, mTORC1 induces mRNA translation by inducing the activation of p70S6 kinase and the subsequent phosphorylation of the S6 ribosomal protein. To ensure increased cellular biomass, mTORC1 downregulates autophagy. We chose the phosphorylation status of the downstream target of mTORC1 signaling, ribosomal S6 (hereafter S6) as a readout for mTORC1 activity.
To provide a straightforward method for detecting the induction of autophagy, we monitored ACHN cells for small molecule inhibitors which decreased the antibody labelled levels of p62 protein and pS6 phosphorylation (see methods below for detailed experiment procedure). To that end, automated high content imaging (HCl) microscopy was used to detect induction of autophagy as documented by the […] by p62 protein expression and mTORC1 inhibition by the decrease in S6 phosphorylation. The HCl assay was optimized for 384-well plate screening. Drug screening plates were designed and created as previously described.
A 7-point dilution series of 116 small molecule inhibitors covering a 1000× concentration range were plated into three, 384-well plates using the EP Motion automated dispensing system. Control wells with equal volumes of DMSO were included as negative controls. ACHN cells were grown, trypsinized counted, and plated directly into warm drug plates using Multidrop combi dispenser. Plates were incubated for 72 hr and subsequently imaged on the Olympus ScanR Platform at 10× magnification performing 4 images per well in 384 well plates. Single-cell nuclear and cytoplasmic fluorescent intensities were calculated using the Olympus ScanR Analysis Software: the DAPI-positive region of each cell was used as a boundary to quantitate nuclei counts for analysis of cell growth and integrated nuclear DNA staining intensity was used for cell cycle analysis. A 10-pixel extension of the nuclear region (and not including the nuclear region) was used to quantitate cytoplasmic signal of immunofluorescent staining of p62 protein and phosphorylation of S6. Mean signal intensity of each marker in all cells per well was used as the metric for cytoplasmic marker expression (average intensity of pS6 and p62). Unsupervised hierarchical clustering was used to identify compounds that produced similar pS6 and p62 dose response phenotypes after treatment.

ACHN cells [2] = assay: Cellular respiration (XF96 Seahorse, ECAR and OCR); assay type: cell-based, human; details: 24 h
Experimental: Oxygen consumption and extracellular acidification rates were carried out in a XF96 Seahorse Analyzer (Seahorse Bioscience, Billerica, Mass., USA). Cells were plated in the wells of 96-well plates (8×10^3 cells/well; XF96 plates, Seahorse Bioscience, North Billerica, Mass.) and incubated at 37° C. overnight. The next day, cells were treated with indicated drugs for 24 hours and then the medium was changed to XF Assay Medium and loaded with glucose, oligomycin, and 2-DG, respectively, as manufacture's recommendation.

ACHN cells [3] = assay: Apoptosis (Caspase 3/7-Glo), ACHN; assay type: cell-based, human
Experimental: (§1) Apoptosis was determined using Caspase 3/7-Glo assay kit (Promega) following the manufacturer's instructions. Briefly, 2000 cells per well were plated in 96 well plates and cultured for 72 h. […] Caspase 3/7 activity was measured using a luminometer. Luminescence values were normalized by cell numbers.

ACHN cells [4] = assay: Lipid droplet staining (Bodipy 493/503), ACHN; assay type: cell-based, human
Experimental: Cells were grown on coverslips then treated with drug for 24 hours. Cells were fixed in 4% paraformaldehyde for 15 min, rinsed with PBS. Cells were washed with a 1% saponin solution for 15 min at room temperature then washed several times in PBS to remove detergent. Cells were then incubated in Bodipy (ThermoFisher #D3922) at a final concentration of 1 uM for 10 min. Bodipy was removed and slides were rinsed with PBS then air dried and mounted on slides using Dako mounting media with Dapi.

ACHN cells [5] = assay: Cell viability (CellTiter-Glo), ACHN; assay type: cell-based, human; details: for proliferation (cell viability): ACHN, 3 days
Experimental: (§2) Cell viability assays were performed by plating 2000 cells/well in 96-well plates in triplicate and treating the following day with the indicated agent. The experiment was continued for 3 days and then cell viability was determined using CellTiter-Glo assay kit (Promega).
The assay was measured using a luminometer. […] Experimental results are the average of at least three independent experiments.

SN12C cells [6] = assay: Apoptosis (Caspase 3/7-Glo), SN12C; assay type: cell-based, human; details: 72 h
Experimental: as §1

[7] = test system: PI3K, mTORC1 and mTORC2 signaling; assay: Western blotting of PI3K-AKT-mTOR signaling; assay type: cell-based, human
Experimental: Cells were plated in 6 well dishes and treated the following day with the indicated agents. Treatments were for 24 hours, after which cells were washed with ice cold PBS and lysed with RIPA buffer (Sigma). Phosphatase inhibitor cocktail set II and protease inhibitor cocktail set III (EMD Millipore) were added at the time of lysis. Lysates were centrifuged at 15,000 g×10 min at 4 degrees C. Protein concentrations were calculated based on a BCA assay (Thermo Scientific) generated standard curve. Proteins were resolved using the NuPAGE Novex Mini Gel system on 4% to 12% Bis-Tris Gels (Invitrogen). For western blotting, equal amounts of cell lysates (15-20 μg of protein) were resolved with SDSPAGE, and transferred to membranes. The membrane was probed with primary antibodies, washed, and then incubated with corresponding fluorescent secondary antibodies and washed. The fluorescent signal was captured using LI-COR (Lincoln, Nebr.) Odyssey Imaging System, and fluorescent intensity was quantified using the Odyssey software where indicated. The following antibodies were used for Western blots: p-S6 (S240/244), S6, LC3B, p-Akt(S473), p-Akt(T308), Akt, cleaved caspase3 (Cell Signaling Technologies). p-Stat3 (Y705), Stat3 and β-actin (AC15) (Abcam). Ki67 (Dako) and cleaved caspase3 (Cell Signaling Technologies) were used for immunohistochemistry. […] BX795 and GDC0941 were purchased from Sigma.

SN12C cells [8] = assay: Cell viability (CellTiter-Glo), SN12C; assay type: cell-based, human; details: 3 days
Experimental: as §2, with “(Promega). The assay was measured using a luminometer. […] Experimental results are the average of at least three independent experiments.” for “(Promega).”

mTORC1 = assay: Autophagy induction and mTORC1 inhibition by JAK inhibitors not contained in the library; assay type: cell-based

Q: With `Oc1nc(-c2ccc(C(F)(F)F)cc2)nc2c1CSCC2` [XAV939] as the compound, how does the “induction of autophagy / autophagic flux” value (ACHN cells [1]) read?
A: induce autophagy

Q: `CN[C@@H]1C[C@H]2O[C@@](C)([C@@H]1OC)n1c3ccccc3c3c4c(c5c6ccccc6n2c5c31)C(=O)NC4` [Staurosporine] was tested. Which “p62 expression and phosphorylation of S6” value (ACHN cells [1]) did it give?
A: reduced both p62 expression and phosphorylation of S6

Q: For `CCCCCCCC/C=C\CCCCCCCCOCCOP(=O)([O-])OCC[N+](C)(C)C` [OOEPC, oleyloxyethylphosphocholine], which “ECAR and OCR on addition to the CYT387-MK2206 combination” value (ACHN cells [2]) is on record?
A: markedly decreased ECAR and OCR

Q: What about the “basal OCR on addition to the CYT387-MK2206 combination” value (ACHN cells [2]) of the same compound?
A: marked decrease in the basal OCR

Q: What about the “spare respiratory capacity on addition to the CYT387-MK2206 combination” value (ACHN cells [2]) of the same compound?
A: significantly reduced the spare respiratory capacity

Q: What about the “apoptosis (Caspase3/7 activity) on addition to CYT387, MK2206, CYT387+MK2206” value (ACHN cells [3]) of the same compound?
A: significantly increased apoptosis

Q: And the “LD abundance on addition to CYT387, MK2206 and CYT387-MK2206 co-treated cells” value (ACHN cells [4]; 24 hrs)?
A: significantly reduced the LD abundance

Q: And the “proliferation on co-treatment with CYT387, MK2206, CYT387+MK2206” value (ACHN cells [5])?
A: minimal additional effect on proliferation

Q: How did the “p62 expression and phosphorylation of S6” value (ACHN cells [1]) turn out when `CN1CC[C@H](c2c(O)cc(O)c3c(=O)cc(-c4ccccc4Cl)oc23)[C@H](O)C1` [Flavopiridol] was run?
A: reduced both p62 expression and phosphorylation of S6

Q: `CC(C)C[C@H](NC(=O)[C@H](Cc1ccccc1)NC(=O)c1cnccn1)B(O)O` [Velcade] was tested. Which “p62 expression and phosphorylation of S6” value (ACHN cells [1]) did it give?
A: reduced both p62 expression and phosphorylation of S6

Q: Which “p62 expression and phosphorylation of S6” value (ACHN cells [1]) does the source give for `CC(C)n1nc(-c2cc3cc(O)ccc3[nH]2)c2c(N)ncnc21` [PP-242] here?
A: reduced both p62 expression and phosphorylation of S6

Q: For `O=C(c1ccc(/C=C/c2n[nH]c3ccccc23)cc1)N1CCNCC1` [KW2449], which “induction of autophagy / autophagic flux” value (ACHN cells [1]) is on record?
A: induce autophagy

Q: What does the source list for `O=C(NCCCNc1nc(Nc2cccc(NC(=O)N3CCCC3)c2)ncc1I)c1cccs1` [BX795]?
A: apoptosis (cleaved-caspase 3/7) (ACHN cells [3]; ACHN, 72 h): little or no effect on apoptosis; apoptosis (cleaved-caspase 3/7) (SN12C cells [6]): little or no effect on apoptosis; proliferation (cell viability) (ACHN cells [5]): some anti-proliferative effects; mTORC1 or mTORC2 signaling (AKT S473 and S6 phosphorylation) [7]: not able to inhibit mTORC1 or mTORC2 signaling; proliferation (cell viability) (SN12C cells [8]): some anti-proliferative effects

Q: For `O=S(=O)(NCCNC/C=C/c1ccc(Br)cc1)c1cccc2cnccc12` [H89], which “p62 expression and phosphorylation of S6” value (ACHN cells [1]) is on record?
A: reduced both p62 expression and phosphorylation of S6

Q: How did the “apoptosis on addition to CYT387-MK2206 treated cells” value (ACHN cells [3]) turn out when `CCc1c(C(=O)C(N)=O)c2c(OCC(=O)O)cccc2n1Cc1ccccc1` [varespladib] was run?
A: increased apoptosis

Q: And the “LDs on addition to CYT387-MK2206 treated cells” value (ACHN cells [4])?
A: decreased LDs

Q: How did the “p62 expression and phosphorylation of S6” value (ACHN cells [1]) turn out when `Cn1c(=O)n(-c2ccc(C(C)(C)C#N)cc2)c2c3cc(-c4cnc5ccccc5c4)ccc3ncc21` [BEZ-235] was run?
A: reduced both p62 expression and phosphorylation of S6

Q: With `C[C@]12O[C@H](C[C@]1(O)CO)n1c3ccccc3c3c4c(c5c6ccccc6n2c5c31)CNC4=O` [CEP-701] as the compound, how does the autophagy induction (mTORC1) read?
A: potently induced autophagy

Q: And the mTORC1 inhibition (mTORC1)?
A: inhibited mTORC1

Q: What does the source list for `CS(=O)(=O)N1CCN(Cc2cc3nc(-c4cccc5[nH]ncc45)nc(N4CCOCC4)c3s2)CC1` [GDC-0941]?
A: proliferation (cell viability) (ACHN cells [5]): some anti-proliferative effects; effect on mTORC1 activity in cells treated with CYT387 ([7]; added to CYT387): additive inhibitory effect on mTORC1 activity; proliferation (cell viability) (SN12C cells [8]): some anti-proliferative effects
